For the assay, the target named is human SSTR2 (Homo sapiens (Human), UniProt P30874). As to the kind of experiment: Human SSTR2 intracellular cAMP functional assay for agonists (HTRF). The assay is classed as cell-based. Put shortly:
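Cells bearing human SSTR2 exposed to compound for 20 minutes at 37 °C; after lysis, cAMP measured by time-resolved fluorescence (HTRF) and converted via a standard curve. EC50 calculated from cAMP versus compound concentration.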

[1] abbreviates: CHO-K1 cells stably expressing human SSTR2, NKH477-stimulated cAMP, read-out: EC50 (inhibition of cAMP activities via human SST2R).

Where two headings read alike, the source gives them in different places.

A word on the EC50: it is the concentration giving half of the maximal effect.

Chain of human SSTR2 (P30874 whole entry): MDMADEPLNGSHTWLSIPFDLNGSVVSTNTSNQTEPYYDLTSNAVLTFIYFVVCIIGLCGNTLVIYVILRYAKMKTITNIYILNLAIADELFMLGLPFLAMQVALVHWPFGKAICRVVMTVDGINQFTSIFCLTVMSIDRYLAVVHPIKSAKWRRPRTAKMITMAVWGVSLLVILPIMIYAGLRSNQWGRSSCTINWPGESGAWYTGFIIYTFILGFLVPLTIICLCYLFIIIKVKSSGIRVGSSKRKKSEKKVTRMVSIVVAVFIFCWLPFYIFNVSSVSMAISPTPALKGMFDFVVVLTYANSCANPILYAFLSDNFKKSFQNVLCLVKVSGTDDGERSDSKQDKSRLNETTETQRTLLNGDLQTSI

`NC(=O)c1cccc(-c2ccc3ncc(-c4cc(F)cc(F)c4)c(N4CC[C@H]5NCCO[C@@H]5C4)c3c2)n1` [2-85, trans-6-[3-(3,5-difluorophenyl)-4-{octahydro-1H-pyrido[3,4-b]morpholin-6-yl}quinolin-6-yl]pyridine-2-carboxamide]: under setting [1], the EC50 is less than 10 nM.
In the case of `CS(=O)(=O)Nc1c(F)cc(F)cc1-c1ccc2ncc(-c3cc(F)cc(F)c3)c(N3CCC(N)CC3)c2c1` [2-86, N-{2-[4-(4-aminopiperidin-1-yl)-3-(3,5-difluorophenyl)quinolin-6-yl]-4,6-difluorophenyl}methanesulfonamide], the EC50 fell in the range of 100 to 1000 nM.
Take `COCCOCOc1c(C#N)cccc1-c1ccc2ncc(-c3cc(F)cc(F)c3)c(N3CCC(N)CC3)c2c1` [2-87, 3-[4-(4-aminopiperidin-1-yl)-3-(3,5-difluorophenyl)quinolin-6-yl]-2-[(2-methoxyethoxy)methoxy]benzonitrile]: the EC50 was in the range of 10 to 100 nM.
The same measure, in the same setting: to `Cc1cc(F)cc(-c2cnc3ccc(-c4cccc(C(=O)N5CCC5)c4O)cc3c2N2CCC(N)CC2)c1` [2-88, 2-[4-(4-aminopiperidin-1-yl)-3-(3-fluoro-5-methylphenyl)quinolin-6-yl] 6-(azetidine-1-carbonyl)phenol] belongs 10 to 100 nM.
For `N#Cc1cc(F)c(F)c(-c2ccc3ncc(-c4cc(F)cc(F)c4)c(N4CCC(N)CC4)c3c2)c1O` [2-99, 3-[4-(4-aminopiperidin-1-yl)-3-(3,5-difluorophenyl)quinolin-6-yl]-4,5-difluoro-2-hydroxybenzonitrile], under setting [1], the EC50 was less than 10 nM.
For `CON=Cc1cccc(-c2ccc3ncc(-c4cc(C)cc(F)c4)c(N4CCC(N)CC4)c3c2)c1O` [2-115, 2-[4-(4-aminopiperidin-1-yl)-3-(3-fluoro-5-methylphenyl)quinolin-6-yl]-6-[(methoxyimino)methyl]phenol], the EC50 under setting [1] is less than 10 nM.
As to `CON=Cc1cc(F)cc(-c2ccc3ncc(-c4cc(C)cc(F)c4)c(N4CCC(N)CC4)c3c2)c1O` [2-116, 2-[4-(4-aminopiperidin-1-yl)-3-(3-fluoro-5-methylphenyl)quinolin-6-yl]-4-fluoro-6-[(methoxyimino)methyl]phenol], the EC50 under setting [1] was less than 10 nM.
On the same count and under the same terms, next, `COC(=O)Nc1c(F)cc(F)c(F)c1-c1ccc2ncc(-c3cc(F)cc(F)c3)c(N3CCC(N)CC3)c2c1` [2-123, methyl N-{2-[4-(4-aminopiperidin-1-yl)-3-(3,5-difluorophenyl)quinolin-6-yl]-3,4,6-trifluorophenyl}carbamate]: less than 10 nM; `COC(=O)Nc1c(C#N)cncc1-c1ccc2ncc(-c3cc(F)cc(F)c3)c(N3CCC(N)CC3)c2c1` [2-125, methyl N-{3-[4-(4-aminopiperidin-1-yl)-3-(3,5-difluorophenyl)quinolin-6-yl]-5-cyanopyridin-4-yl}carbamate]: less than 10 nM; `NC1CCN(c2c(-c3cc(F)cc(F)c3)cnc3ccc(-c4cccc(F)c4C=NO)cc23)CC1` [2-126, 1-[3-(3,5-difluorophenyl)-6-{3-fluoro-2-[(hydroxyimino)methyl]phenyl}quinolin-4-yl]piperidin-4-amine]: less than 10 nM.
`CON=Cc1c(F)cccc1-c1ccc2ncc(-c3cc(F)cc(F)c3)c(N3CCC(N)CC3)c2c1` [2-129, 1-[3-(3,5-difluorophenyl)-6-{3-fluoro-2-[(methoxyimino)methyl]phenyl}quinolin-4-yl]piperidin-4-amine] yielded an EC50 of 10 to 100 nM.
On the same count and under the same terms, to `NC1CCN(c2c(-c3cc(F)cc(F)c3)cnc3ccc(-c4cccc(C(N)C(F)(F)F)c4)cc23)CC1` (stereo not drawn) [2-132, 1-{6-[3-(1-amino-2,2,2-trifluoroethyl)phenyl]-3-(3,5-difluorophenyl)quinolin-4-yl}piperidin-4-amine] belongs 10 to 100 nM.
Turning to `NC1CCN(c2c(-c3cc(F)cc(F)c3)cnc3ccc(-c4c(O)c(Cl)cc(F)c4F)cc23)CC1` [2-134, 2-[4-(4-aminopiperidin-1-yl)-3-(3,5-difluorophenyl)quinolin-6-yl]-6-chloro-3,4-difluorophenol], the EC50 under setting [1] is less than 10 nM.
Still for that read-out and setting: next, `CONC(=O)Nc1c(F)cc(F)cc1-c1ccc2ncc(-c3cc(F)cc(F)c3)c(N3CCC(N)CC3)c2c1` [2-139, 1-{2-[4-(4-aminopiperidin-1-yl)-3-(3,5-difluorophenyl)quinolin-6-yl]-4,6-difluorophenyl}-3-methoxyurea]: less than 10 nM.
For `NC1CCN(c2c(-c3cc(F)cc(F)c3)cnc3ccc(-c4cc(Cl)c5[nH]c(=O)[nH]c5c4)cc23)CC1` [2-141, 6-[4-(4-aminopiperidin-1-yl)-3-(3,5-difluorophenyl)quinolin-6-yl]-4-chloro-2,3-dihydro-1H-1,3-benzodiazol-2-one], the EC50 lay within 10 to 100 nM.
On to `NC1CCN(c2c(-c3cc(F)cc(F)c3)cnc3ccc(-c4ccc5oc(=O)[nH]c5c4)cc23)CC1` [2-142, 5-[4-(4-aminopiperidin-1-yl)-3-(3,5-difluorophenyl)quinolin-6-yl]-2,3-dihydro-1,3-benzoxazol-2-one], for which the EC50 under setting [1] is less than 10 nM.
On the same count and under the same terms, next, `N#Cc1cccc(-c2ccc3ncc(-c4cc(F)cc(F)c4)c(N4CC[C@@H](N)[C@H](C(=O)O)C4)c3c2)c1O` [2-145]: 100 to 1000 nM.
Take `N#Cc1cc(Cl)c(F)c(-c2ccc3ncc(-c4cc(F)cc(F)c4)c(N4CCC(N)CC4)c3c2)c1O` [2-147, 3-[4-(4-aminopiperidin-1-yl)-3-(3,5-difluorophenyl)quinolin-6-yl]-5-chloro-4-fluoro-2-hydroxybenzonitrile]: the EC50 was 10 to 100 nM.
Consider `COC(=O)Nc1c(C#N)cccc1-c1ccc2ncc(-c3cc(F)cc(F)c3)c(N3CCC(N)CC3)c2c1` [2-148, methyl N-{2-[4-(4-aminopiperidin-1-yl)-3-(3,5-difluorophenyl)quinolin-6-yl]-6-cyanophenyl}carbamate], for which the EC50 under setting [1] is less than 10 nM.
On to `NC1CCN(c2c(-c3cc(F)cc(F)c3)cnc3ccc(-c4c(O)c(F)cc(F)c4F)cc23)CC1` [2-150, 2-[4-(4-aminopiperidin-1-yl)-3-(3,5-difluorophenyl)quinolin-6-yl]-3,4,6-trifluorophenol], for which, under setting [1], the EC50 is less than 10 nM.
The same measure, in the same setting: next, `NC1CCN(c2c(-c3cc(F)cc(F)c3)cnc3ccc(-c4cncc(F)c4C=NO)cc23)CC1` [2-152, 1-[3-(3,5-difluorophenyl)-6-{5-fluoro-4-[(hydroxyimino)methyl]pyridin-3-yl}quinolin-4-yl]piperidin-4-amine]: less than 10 nM; `CONC(=O)Nc1c(F)cc(F)cc1-c1ccc2ncc(-c3cc(F)cc(OC)c3)c(N3CCC(N)CC3)c2c1` [2-164, 1-{2-[4-(4-aminopiperidin-1-yl)-3-(3-fluoro-5-methoxyphenyl)quinolin-6-yl]-4,6-difluorophenyl}-3-methoxyurea]: less than 10 nM; `COC(=O)Nc1c(F)cc(F)cc1-c1ccc2ncc(-c3cc(F)cc(OC)c3)c(N3CCC(N)CC3)c2c1` [2-165, methyl N-{2-[4-(4-aminopiperidin-1-yl)-3-(3-fluoro-5-methoxyphenyl)quinolin-6-yl]-4,6-difluorophenyl}carbamate]: less than 10 nM.
Still for that read-out and setting: next, `COc1cc(F)cc(-c2cnc3ccc(-c4cccc(F)c4C=NO)cc3c2N2CCC(N)CC2)c1` [2-166, 1-(6-{3-fluoro-2-[(hydroxyimino)methyl]phenyl}-3-(3-fluoro-5-methoxyphenyl)quinolin-4-yl)piperidin-4-amine]: less than 10 nM.
On the same count and under the same terms, to `COC(=O)Nc1c(C#N)cccc1-c1ccc2ncc(-c3cc(F)cc(OC)c3)c(N3CCC(N)CC3)c2c1` [2-167, methyl N-{2-[4-(4-aminopiperidin-1-yl)-3-(3-fluoro-5-methoxyphenyl)quinolin-6-yl]-6-cyanophenyl}carbamate] belongs less than 10 nM; to `Cc1cc(F)cc(-c2cnc3ccc(-c4cncc(F)c4C=NO)cc3c2N2CCC(N)CC2)c1` [2-168, 1-(6-{5-fluoro-4-[(hydroxyimino)methyl]pyridin-3-yl}-3-(3-fluoro-5-methylphenyl)quinolin-4-yl)piperidin-4-amine], less than 10 nM; to `Cc1cc(F)cc(-c2cnc3ccc(-c4cncc(F)c4N)cc3c2N2CCC(N)CC2)c1` [2-169, 3-[4-(4-aminopiperidin-1-yl)-3-(3-fluoro-5-methylphenyl)quinolin-6-yl]-5-fluoropyridin-4-amine], less than 10 nM.
With `CONC(=O)Nc1c(F)cncc1-c1ccc2ncc(-c3cc(C)cc(F)c3)c(N3CCC(N)CC3)c2c1` [2-172, 1-{3-[4-(4-aminopiperidin-1-yl)-3-(3-fluoro-5-methylphenyl)quinolin-6-yl]-5-fluoropyridin-4-yl}-3-methoxyurea], under setting [1], the EC50 was less than 10 nM.
The same measure, in the same setting: next, `COC(=O)Nc1c(F)cccc1-c1ccc2ncc(-c3cc(F)cc(OC)c3)c(N3CCC(N)CC3)c2c1` [2-173, methyl N-{2-[4-(4-aminopiperidin-1-yl)-3-(3-fluoro-5-methoxyphenyl)quinolin-6-yl]-6-fluorophenyl}carbamate]: less than 10 nM; `CONC(=O)Nc1c(F)cccc1-c1ccc2ncc(-c3cc(F)cc(OC)c3)c(N3CCC(N)CC3)c2c1` [2-174, 1-{2-[4-(4-aminopiperidin-1-yl)-3-(3-fluoro-5-methoxyphenyl)quinolin-6-yl]-6-fluorophenyl}-3-methoxyurea]: less than 10 nM.
On to `COc1cc(F)cc(-c2cnc3ccc(-c4cccc(F)c4NC(=O)N4CCC4)cc3c2N2CCC(N)CC2)c1` [2-175, N-{2-[4-(4-aminopiperidin-1-yl)-3-(3-fluoro-5-methoxyphenyl)quinolin-6-yl]-6-fluorophenyl}azetidine-1-carboxamide], for which the EC50 was in the range of 10 to 100 nM.
For `NC1CCN(c2c(-c3cc(F)cc(C(F)(F)F)c3)cnc3ccc(-c4cncc(F)c4C=NO)cc23)CC1` [2-176, 1-(6-{5-fluoro-4-[(hydroxyimino)methyl]pyridin-3-yl}-3-[3-fluoro-5-(trifluoromethyl)phenyl]quinolin-4-yl)piperidin-4-amine], the EC50 under setting [1] is less than 10 nM.
The same measure, in the same setting: next, `N#Cc1cncc(-c2ccc3ncc(-c4cc(F)cc(F)c4)c(N4CCC(N)CC4)c3c2)c1N` [2-177, 4-amino-5-[4-(4-aminopiperidin-1-yl)-3-(3,5-difluorophenyl)quinolin-6-yl]pyridine-3-carbonitrile]: less than 10 nM.

These data come from US10351547B2, “Somatostatin modulators and uses thereof” (priority 2016, dated 2019).
